Laboratory results as given in patent publication US6962909B2, “Treatment of neovascularization disorders with squalimine” (Genaera Corporation, priority 1995, dated 2005).
Converted amounts (≈) assume the structure as drawn.

Experiments:
[1] = tested on: human microvascular cells; assay: Endothelial cord formation assay; format: cell-based; also: key: + = Inhibition of angiogenesis; − = No inhibition of angiogenesis; T = Toxic; *= cell rounding @ 10 µg/ml
Description: Endothelial cells have the capacity in vitro to form tubular aggregates resembling capillaries in various early stages of formation. This conversion occurs under relatively specific conditions, in which essential growth factors along with an effective substratum are provided. It has been shown that both the interaction of growth factors with the endothelial cell and its attachment to a substratum activate the NHE. The activation of this exchanger is believed to be required for subsequent morphologic transformation of the endothelial cell into a multicellular tubular structure.
To assess the effect of compounds on the cord-like structures formed by human microvascular cells when plated in the presence of VGEF (Vascular Endothelial Growth Factor) and basic fibroblast growth factor on a collagen matrix, a standard cord formation assay was used.

[2] = tested on: Stage 59-60 Xenopus tadpoles; assay: Xenopus tadpole assay; format: in vivo, Xenopus laevis; conditions: 10 μg/ml in water
Description: A newly developed assay employing tadpoles, preferably Xenopus laevis Stages 59-60, were employed to study the effect of a compound by monitoring capillary occlusion in the tadpole's tail. […] The compounds of the invention affect the shape, viability and integrity of the embryonic tissues while not affecting the adult tissues, providing a powerful, highly specific screen. For example, substances that destroy all of the animal's epithelium, both adult and embryonic, could be regarded as toxic.
In this assay, tadpoles are introduced into Petri dishes containing a solution of the test compound in distilled water, preferably about 100 ml. The preferred concentration of the test compound is from about 1 μg/ml to about 10 μg/ml. The volume of liquid is sufficient for the animal to swim freely and drink from the solution. Thus, the effect observed results from oral absorption and subsequent systemic distribution of the agent. If the volume of liquid is not sufficient to permit oral intake, the effects that are observed would result from absorption through the surface epithelium. Thus, this simple assay can identify if an compound has characteristics of oral availability.
After an amount of time, typically about 60 minutes, the occlusion of blood flow through capillaries in the tadpole's tail are observed under an inverted microscope at a magnification of roughly 100×.
The tadpole assay described above provides an advantageous way to determine the pharmacological targets of each steroid when introduced into a mammal, and to determine pharmacological categories into which synthetic compounds belong. In the assay, each of the steroids was dissolved in 100 ml of distilled water at a concentration of 10 μg/ml. Stage 59-60 Xenopus tadpoles were introduced and evaluated by light microscopy and gross observation 1 hour later.

[3] = tested on: vitelline capillaries of 3- to 5-day chick embryo; assay: Chick embryo vitelline capillary regression assay; format: in vivo; design: key to Vascular reactivity (capillary regression): + = Vascular reactivity; 0 = No vascular reactivity; +/− = Equivocal reactivity; conditions: 60 minutes
Experimental: Using the chick embryo vitelline capillaries assay, compounds were tested for their ability to induce capillary regression. Each compound was applied in 0.1 ml of 15% Ficol 400 and PBS onto the embryo, and vascular regression was assessed after 60 minutes.
The 3-day chick embryo consists of an embryonic disc from which numerous vessels emerge and return, forming a “figure 8”-shaped structure—the embryo in the center with vascular loops extending outward over both poles. […] Following a lag period of around 15 minutes, the constriction of continuity between capillary and secondary vessels, generally on the “venous” side, was observed. Continued pulsatile blood flow progressed, resulting in a “swelling” of the blind tube, followed by a pinching off of the remaining connection and formation of an enclosed vascular sac resembling a “blood island.” This process progressed until only the largest vessels remained intact.

S. aureus = assay: Antibiotic activity, MIC; format: cell-based; conditions: Staphylococcus aureus
C. albicans = assay: Antibiotic activity, MIC; conditions: Candida albicans
E. coli = assay: Antibiotic activity, MIC; format: cell-based; conditions: Escherichia coli
P. aerug = assay: Antibiotic activity, MIC

Structure (SMILES)	MIC (S. aureus) [µg/mL]	MIC (C. albicans) [µg/mL]	MIC (E. coli) [µg/mL]	MIC (P. aerug) [µg/mL]	other results
CC(CCC(=O)O)[C@H]1CCC2C3C(CC[C@@]21C)[C@@]1(C)CC[C@@H](NCCCNCCCCNCCCN)C[C@H]1C[C@H]3O (stereo partly shown) [Compound 412]					Effect on endothelial cord formation ([1]; 0.1 μg/ml): −; Effect on endothelial cord formation ([1]; 1.0 μg/ml): −; Effect on endothelial cord formation ([1]; 10.0 μg/ml): +; Pharmacological category in tadpole assay (similarity to a reference steroid) [2]: pharmacologic activity similar to that seen for FX 3; Vascular reactivity (capillary regression) ([3]; 0.001 μg applied): 0; Vascular reactivity (capillary regression) ([3]; 0.01 μg applied): 0; Vascular reactivity (capillary regression) ([3]; 0.1 μg applied): 0; Vascular reactivity (capillary regression) ([3]; 1 μg applied): +
COC(=O)CCC(C)[C@H]1CCC2C3C(CC[C@@]21C)[C@@]1(C)CC[C@H](NCCN)C[C@H]1C[C@H]3O (stereo partly shown) [Compound 409]					Pharmacological category in tadpole assay (similarity to a reference steroid) [2]: functionally similar to compound 1437; Vascular reactivity (capillary regression) ([3]; 1 μg applied): 0
CC(C)CCCC(C)[C@H]1CCC2C3CC[C@H]4C[C@@H](NCCCNCCCCN)CC[C@]4(C)C3CC[C@@]21C (stereo partly shown)	8 (≈ 15.5 µM)	256 (≈ 496 µM)	128 to 256 (≈ 248 to 496 µM)	128 (≈ 248 µM)	
COC(=O)CCC(C)[C@H]1CCC2C3C(CC[C@@]21C)[C@@]1(C)CCC(NCCCNCCCCNCCCN)C[C@@H]1C[C@H]3O (stereo partly shown)	4 (≈ 6.77 µM)	64 (≈ 108 µM)	32 (≈ 54.2 µM)	64 (≈ 108 µM)	
C[C@@H](O)C1CCC2C3CC[C@H]4C[C@H](NCCCNCCCCN)CC[C@]4(C)C3CC[C@@]21C (stereo partly shown)	16 (≈ 35.7 µM)	128 (≈ 286 µM)	64 (≈ 143 µM)	128 (≈ 286 µM)	
CC(C)CCCC(C)[C@H]1CCC2C3CC[C@H]4C[C@H](NCCCNCCCCN)CC[C@]4(C)C3CC[C@@]21C (stereo partly shown)	2 to 4 (≈ 3.88 to 7.75 µM)	128 (≈ 248 µM)	128 (≈ 248 µM)	128 (≈ 248 µM)	
CC(C)CCCC(C)[C@H]1CCC2C3CC[C@H]4C[C@H](NCCCNCCCCNCCCN)CC[C@]4(C)C3CC[C@@]21C (stereo partly shown)	8 (≈ 14 µM)	16 to 32 (≈ 27.9 to 55.8 µM)	64 to 128 (≈ 112 to 223 µM)	64 (≈ 112 µM)	
CC(CCC(=O)O)[C@H]1CCC2C3C(CC[C@@]21C)[C@@]1(C)CC[C@@H](NCCN)C[C@H]1C[C@H]3O (stereo partly shown) [Compound 414]					Pharmacological category in tadpole assay (similarity to a reference steroid) [2]: pharmacologic activity similar to Fraction 1; Vascular reactivity (capillary regression) ([3]; 1 μg applied): 0
CC(COS(=O)(=O)O)C(=O)CCC(C)[C@H]1CCC2C3C(CC[C@@]21C)[C@@]1(C)CC[C@H](NCCCNCCCCN)C[C@@H]1C[C@H]3O (stereo partly shown) [drawing 63]	8 (≈ 12.5 µM)	32 (≈ 49.8 µM)	128 (≈ 199 µM)	128 (≈ 199 µM)	
CC(CCC(=O)O)[C@H]1CCC2C3C(CC[C@@]21C)[C@@]1(C)CC[C@@H](NCCCNCCCCN)C[C@@H]1C[C@H]3O (stereo partly shown)	16 (≈ 30.8 µM)	32 (≈ 61.6 µM)	64 (≈ 123 µM)	32 (≈ 61.6 µM)	
CC(C)CCCC(C)[C@H]1CCC2C3C(CC[C@@]21C)[C@@]1(C)CC[C@@H](N)C[C@@H]1C[C@H]3O (stereo partly shown)	2 (≈ 4.95 µM)		> 256	> 256	
COC(=O)CCC(C)[C@H]1CCC2C3C(CC[C@@]21C)[C@@]1(C)CC[C@@H](NCCCNCCCCN)C[C@@H]1C[C@H]3O (stereo partly shown)	4 (≈ 7.49 µM)	32 (≈ 59.9 µM)	64 (≈ 120 µM)	64 (≈ 120 µM)	
CC(C)CCCC(C)[C@H]1CCC2C3CC[C@H]4C[C@@H](NCCCCN)CC[C@]4(C)C3CC[C@@]21C (stereo partly shown)	16 (≈ 34.9 µM)	> 256	> 256	> 256	
CC(CCC(=O)O)[C@H]1CCC2C3C(CC[C@@]21C)[C@@]1(C)CC[C@H](NCCCNCCCCN)C[C@@H]1C[C@H]3O (stereo partly shown)	32 (≈ 61.6 µM)	128 (≈ 246 µM)	64 (≈ 123 µM)	32 (≈ 61.6 µM)	
